In US20260060993A1, “COMPOSITION FOR IMPROVEMENT OF INTESTINAL FLORA” (MEIJI CO., LTD., priority 2022, published 2026):
“Also recorded” adds a separate entry of the source.

Columns and labels:
Bifidobacterium bacteria = assay: Human fecal culture system, relative abundance by 16S V3-V4 amplicon sequencing (Test Example 1); type: cell-based; settings: 1% substance; for Change in relative abundance of Bifidobacterium bacteria: feces of two healthy adults, 2 days at 37° C., anaerobic, pH 6.5, versus control without substance
Description: (§1) Each substance to be evaluated was added at a concentration of 1% to a diluted fecal solution in which feces of healthy adult origin were suspended in the GAM Semisolid without Dextrose “Nissui” (Nissui Pharmaceutical Co., Ltd.) for GAM glycolysis from which agar was removed by filtration. Fecal materials of two individuals were each tested without mixing them. The medium used for the test was allowed to stand in an anaerobic glove box at least overnight before use. For the culture, a microbioreactor BioLector Pro […]-Labs) and a plate with microfluidic channels were used, and the culture was performed for 2 days at 37° C. and 600 rpm in an anaerobic environment while maintaining a constant pH of 6.5 with 1.5 N HCl and sodium hydroxide during the culture. The prebiotic abilities of the added substances were evaluated by comparing the bacterial flora obtained after the culture with that obtained under the control condition in which the substances to be evaluated were not added. DNA was extracted and purified from the diluted fecal solutions after the culture by using Maxwell RSC PureFood GMO & Authentication Kit (Promega), and amplicon sequencing of the V3-V4 region was performed by using MiSeq (Illumina). The resulting fastq files were analyzed with QIIME2 (https://quime2.org/) to calculate the relative abundance of each intestinal bacterium.

Parabacteroides bacteria [1] = assay: as above; type: cell-based; settings: 1% substance, feces of two healthy adults, 2 days at 37° C., anaerobic, pH 6.5, versus control without substance
Description: as §1

bifidobacteria = settings: known from Non-patent documents 7 and 8; cited from earlier work
Parabacteroides bacteria [2] = assay: Human fecal culture, 60 subjects, genus-level analysis (Test Example 3); type: cell-based; settings: 0.25% substance, n=60 fecal samples, 1 day at 37° C., anaerobic, versus distilled water; Wilcoxon's signed rank test, p=3.59×10^−8
Description: Galactosylkojibiose (trisaccharide fraction) was added at a concentration of 0.25% to a diluted fecal solution in which feces of healthy adult origin were suspended in the GAM Semisolid without Dextrose “Nissui” (Nissui Pharmaceutical Co., Ltd.) from which agar was removed by filtration (n=60). The galactosylkojibiose (trisaccharide fraction) was the fractionated and purified product containing 4′-galactosylkojibiose as the main ingredient prepared in Production Example 2. The fecal samples for 60 subjects were aliquoted under refrigerated conditions immediately after excretion and frozen at −80° C. until use. The test was performed for each of the fecal samples without mixing them. The medium used for the test was allowed to stand in an anaerobic glove box at least overnight before use. For the culture, a 96-well deepwell plate was used, and the culture was performed for 1 day at 37° C. in an anaerobic environment. The prebiotic ability of the added evaluation substance was evaluated by comparing the bacterial flora observed after the culture with that obtained under the control condition in which distilled water was added instead of the evaluation substance. […] The resulting fastq files were analyzed with QIIME2 (https://qiime2.org/) to calculate the relative abundance of each intestinal bacterium.

[3] = tested on: Parabacteroides distasonis; assay: Human fecal culture, 60 subjects, species-level analysis (Test Example 3); type: cell-based; settings: 0.25% substance, n=60 fecal samples, 1 day at 37° C., anaerobic, versus distilled water; Wilcoxon's signed rank order test, p=2.07×10^−8
Description: Galactosylkojibiose (trisaccharide fraction) was added at a concentration of 0.25% to a diluted fecal solution in which feces of healthy adult origin were suspended in the GAM Semisolid without Dextrose “Nissui” (Nissui Pharmaceutical Co., Ltd.) from which agar was removed by filtration (n=60). The galactosylkojibiose (trisaccharide fraction) was the fractionated and purified product containing 4'-galactosylkojibiose as the main ingredient prepared in Production Example 2. The fecal samples for 60 subjects were aliquoted under refrigerated conditions immediately after excretion and frozen at -80° C. until use. The test was performed for each of the fecal samples without mixing them. The medium used for the test was allowed to stand in an anaerobic glove box at least overnight before use. […] The prebiotic ability of the added evaluation substance was evaluated by comparing the bacterial flora observed after the culture with that obtained under the control condition in which distilled water was added instead of the evaluation substance. […] The resulting fastq files were analyzed with QIIME2 (https://qiime2.org/) to calculate the relative abundance of each intestinal bacterium. […] The resulting fastq files were analyzed with QIIME2 (https://qiime2.org/), and confirmed that it was classified as that of […] at the bacterial species level. […]

lactase = target: T1, lactase (Kluyveromyces lactis, UniProt P00723); assay: Lactase treatment of the trisaccharide fraction, LCMS analysis; type: biochemical; settings: 10% in phosphate-citrate buffer pH 6.5, 0.1% lactase (GODO-YNL), 40° C.
T1 construct: purchased Godo Shusei Co., Ltd. GODO-YNL
T1 sequence (P00723 whole entry): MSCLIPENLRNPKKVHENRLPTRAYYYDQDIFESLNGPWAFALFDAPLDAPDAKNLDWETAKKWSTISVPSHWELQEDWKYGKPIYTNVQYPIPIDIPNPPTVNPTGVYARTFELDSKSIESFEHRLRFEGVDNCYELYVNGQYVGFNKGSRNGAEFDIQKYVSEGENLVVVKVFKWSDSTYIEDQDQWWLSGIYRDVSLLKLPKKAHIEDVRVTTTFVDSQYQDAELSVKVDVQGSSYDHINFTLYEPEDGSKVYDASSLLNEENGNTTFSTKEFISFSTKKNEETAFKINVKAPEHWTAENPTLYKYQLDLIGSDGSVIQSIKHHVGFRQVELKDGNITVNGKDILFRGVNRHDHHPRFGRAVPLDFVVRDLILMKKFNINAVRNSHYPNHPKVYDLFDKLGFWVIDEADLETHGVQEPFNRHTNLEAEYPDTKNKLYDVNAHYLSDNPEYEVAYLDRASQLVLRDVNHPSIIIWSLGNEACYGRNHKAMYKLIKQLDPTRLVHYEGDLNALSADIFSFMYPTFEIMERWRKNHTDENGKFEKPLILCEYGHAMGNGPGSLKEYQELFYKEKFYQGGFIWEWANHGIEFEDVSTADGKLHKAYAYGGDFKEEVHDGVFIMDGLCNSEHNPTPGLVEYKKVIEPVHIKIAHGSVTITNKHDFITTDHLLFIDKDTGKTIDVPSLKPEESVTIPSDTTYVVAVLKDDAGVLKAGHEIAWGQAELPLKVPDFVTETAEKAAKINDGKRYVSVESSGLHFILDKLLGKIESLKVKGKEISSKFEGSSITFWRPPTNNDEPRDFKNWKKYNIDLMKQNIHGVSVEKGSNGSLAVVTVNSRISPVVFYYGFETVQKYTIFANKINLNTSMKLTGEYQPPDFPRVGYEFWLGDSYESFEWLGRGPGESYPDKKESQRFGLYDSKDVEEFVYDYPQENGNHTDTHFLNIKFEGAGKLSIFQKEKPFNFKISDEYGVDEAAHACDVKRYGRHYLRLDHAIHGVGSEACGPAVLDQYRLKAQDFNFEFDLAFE
Description: The purified trisaccharide fraction was lyophilized and dissolved in a phosphate-citrate buffer, pH 6.5 at a concentration of 10%. Then, 0.1% of lactase (product name GODO-YNL, Godo Shusei Co., Ltd.) was added to the solution, and the enzymatic reaction was allowed at 40° C.

| SMILES | Change in relative abundance of Bifidobacterium bacteria (Bifidobacterium bacteria) | Change in relative abundance of Parabacteroides bacteria (Parabacteroides bacteria [1]) | Effect on growth of bifidobacteria (bifidobacteria) | Increase of relative abundance of Bifidobacterium bacteria compared with kojibiose (Bifidobacterium bacteria; all samples of the two subjects, comparison with kojibiose) | Change in relative abundance of Parabacteroides bacteria (genus level) (Parabacteroides bacteria [2]) | Change in relative abundance of species indicated as “Parabacteroides_” (judged Parabacteroides distasonis) [3] | Product formed by lactase treatment (lactase) |
| --- | --- | --- | --- | --- | --- | --- | --- |
| OCC1OC(O)C(O[C@H]2OC(CO)[C@@H](O)[C@H](O)C2O)[C@@H](O)[C@@H]1O (stereo partly drawn) [kojibiose] | increased | increase | growth-promoting effect |  |  |  |  |
| OCC1O[C@H](OC2C(O)[C@H](O[C@@H]3OC(CO)[C@H](O)C(O)C3O)C(CO)O[C@H]2O)C(O)C(O)[C@@H]1O (stereo partly drawn) [α-D-Glcp-(1→2)-[β-D-Galp-(1→4)-]D-Glcp] | increased | increase |  | more significantly increased | significant increase | significant increase; also recorded: significantly increased | formation of kojibiose |
